Test results reported in patent US12582652B2, “3-(ethoxydifluoromethyl)-6-(5-fluoro-6-(2,2,2-trifluoroethoxy)pyridin-3-yl)-[1,2,4]triazolo[4,3-a]pyrazine as an ion channel modulator” (Praxis Precision Medicines, Inc., priority 2022, dated 2026).
Entries after “also recorded” stand apart in the source; their conditions may differ.

Key:
human NaV1.6 = molecular target: T1, human NaV1.6 (Homo sapiens, UniProt Q9UQD0); assay: Peak INa use-dependent block (UDB-10 Hz), PatchXpress patch clamp; type: cell-based
T1 construct: stably expressing either human NaV1.6 (NP_055006); expressed in transfected cells
T1 sequence (Q9UQD0 whole entry): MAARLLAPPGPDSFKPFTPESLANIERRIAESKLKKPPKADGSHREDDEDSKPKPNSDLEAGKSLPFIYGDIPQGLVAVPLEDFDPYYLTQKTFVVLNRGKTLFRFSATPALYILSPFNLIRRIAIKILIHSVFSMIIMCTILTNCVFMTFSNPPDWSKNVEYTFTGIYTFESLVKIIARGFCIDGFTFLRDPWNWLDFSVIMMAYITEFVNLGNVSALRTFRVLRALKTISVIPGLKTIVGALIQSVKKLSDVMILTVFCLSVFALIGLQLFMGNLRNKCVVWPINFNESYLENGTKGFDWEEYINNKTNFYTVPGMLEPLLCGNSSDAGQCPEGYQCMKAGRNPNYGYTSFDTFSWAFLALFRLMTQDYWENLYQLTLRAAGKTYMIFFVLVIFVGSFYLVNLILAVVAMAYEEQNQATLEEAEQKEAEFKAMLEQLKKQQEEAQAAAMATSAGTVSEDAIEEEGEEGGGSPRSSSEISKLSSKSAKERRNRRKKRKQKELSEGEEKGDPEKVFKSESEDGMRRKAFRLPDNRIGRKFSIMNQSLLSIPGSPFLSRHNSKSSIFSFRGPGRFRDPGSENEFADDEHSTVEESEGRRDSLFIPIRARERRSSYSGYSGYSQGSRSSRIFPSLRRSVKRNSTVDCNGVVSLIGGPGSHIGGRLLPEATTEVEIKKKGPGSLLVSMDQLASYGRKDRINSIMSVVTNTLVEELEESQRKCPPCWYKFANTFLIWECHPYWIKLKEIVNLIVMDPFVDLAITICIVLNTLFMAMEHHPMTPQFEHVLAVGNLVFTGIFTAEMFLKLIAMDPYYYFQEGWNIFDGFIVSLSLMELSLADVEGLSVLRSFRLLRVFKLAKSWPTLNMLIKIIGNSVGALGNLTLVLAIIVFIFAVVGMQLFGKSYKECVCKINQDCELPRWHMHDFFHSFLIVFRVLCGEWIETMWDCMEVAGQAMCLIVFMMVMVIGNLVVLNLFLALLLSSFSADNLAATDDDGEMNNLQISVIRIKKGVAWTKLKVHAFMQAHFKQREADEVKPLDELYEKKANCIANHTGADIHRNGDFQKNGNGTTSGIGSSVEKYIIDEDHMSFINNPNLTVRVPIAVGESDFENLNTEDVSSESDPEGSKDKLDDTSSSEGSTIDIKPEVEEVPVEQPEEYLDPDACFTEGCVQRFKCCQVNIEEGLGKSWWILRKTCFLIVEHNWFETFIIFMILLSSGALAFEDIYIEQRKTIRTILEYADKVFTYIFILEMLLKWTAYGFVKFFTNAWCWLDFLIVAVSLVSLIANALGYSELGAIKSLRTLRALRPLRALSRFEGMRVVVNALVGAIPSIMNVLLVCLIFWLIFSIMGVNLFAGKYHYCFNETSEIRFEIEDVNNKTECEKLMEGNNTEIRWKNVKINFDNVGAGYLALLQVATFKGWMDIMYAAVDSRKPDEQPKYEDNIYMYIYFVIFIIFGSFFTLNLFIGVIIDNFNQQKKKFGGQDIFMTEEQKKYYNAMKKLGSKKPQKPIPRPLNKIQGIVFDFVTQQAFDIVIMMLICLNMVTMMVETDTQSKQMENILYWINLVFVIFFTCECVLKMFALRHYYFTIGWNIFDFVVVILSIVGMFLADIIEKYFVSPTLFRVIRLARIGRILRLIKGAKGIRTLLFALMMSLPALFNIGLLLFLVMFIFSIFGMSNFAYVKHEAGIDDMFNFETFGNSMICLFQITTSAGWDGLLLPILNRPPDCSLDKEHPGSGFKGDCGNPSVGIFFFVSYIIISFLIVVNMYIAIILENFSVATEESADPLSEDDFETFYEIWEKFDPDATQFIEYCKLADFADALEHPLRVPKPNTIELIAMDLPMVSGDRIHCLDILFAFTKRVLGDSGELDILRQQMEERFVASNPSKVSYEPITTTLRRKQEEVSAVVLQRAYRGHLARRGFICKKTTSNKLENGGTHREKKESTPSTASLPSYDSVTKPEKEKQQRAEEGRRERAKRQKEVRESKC

hNaV1.1 [1] = molecular target: T2, hNaV1.1 (Homo sapiens, UniProt P35498); assay: Peak INa voltage-dependent block, patch clamp; type: cell-based
Experimental: (§1) Voltage Dependent Block (VDB): VDB protocols used a depolarized voltage to keep channels in half-inactivated (resting) states. This allowed equilibrium binding and accurate determination of isoform selectivity (in the absence of biological features). For each cell, the midpoint of inactivation (V0.5) was determined using a 5,000 ms step to increase voltages (10 mV increments) to inactivate the channel immediately followed by a 2 ms step to 0 mV to maximally activate the channels. The holding potential (Vhold) was −120 mV between steps. The peak INa measured in response to the step to 0 mV was plotted and fitted with a Boltzmann equation to determine the V0.5. This value was then used for the VDB protocol. Pharmacology was measured during peak INa in response to step to 0 mV. No leak subtraction was used.

hNaV1.2 [2] = molecular target: T3, hNaV1.2 (Homo sapiens, UniProt Q99250); assay: Peak INa voltage-dependent block, patch clamp; type: cell-based
Experimental: as §1

hNaV1.5 [3] = molecular target: T4, hNaV1.5 (Homo sapiens, UniProt Q14524); assay: Peak INa voltage-dependent block, patch clamp; type: cell-based
T4 sequence (Q14524 1-2015 isoform Q14524-2): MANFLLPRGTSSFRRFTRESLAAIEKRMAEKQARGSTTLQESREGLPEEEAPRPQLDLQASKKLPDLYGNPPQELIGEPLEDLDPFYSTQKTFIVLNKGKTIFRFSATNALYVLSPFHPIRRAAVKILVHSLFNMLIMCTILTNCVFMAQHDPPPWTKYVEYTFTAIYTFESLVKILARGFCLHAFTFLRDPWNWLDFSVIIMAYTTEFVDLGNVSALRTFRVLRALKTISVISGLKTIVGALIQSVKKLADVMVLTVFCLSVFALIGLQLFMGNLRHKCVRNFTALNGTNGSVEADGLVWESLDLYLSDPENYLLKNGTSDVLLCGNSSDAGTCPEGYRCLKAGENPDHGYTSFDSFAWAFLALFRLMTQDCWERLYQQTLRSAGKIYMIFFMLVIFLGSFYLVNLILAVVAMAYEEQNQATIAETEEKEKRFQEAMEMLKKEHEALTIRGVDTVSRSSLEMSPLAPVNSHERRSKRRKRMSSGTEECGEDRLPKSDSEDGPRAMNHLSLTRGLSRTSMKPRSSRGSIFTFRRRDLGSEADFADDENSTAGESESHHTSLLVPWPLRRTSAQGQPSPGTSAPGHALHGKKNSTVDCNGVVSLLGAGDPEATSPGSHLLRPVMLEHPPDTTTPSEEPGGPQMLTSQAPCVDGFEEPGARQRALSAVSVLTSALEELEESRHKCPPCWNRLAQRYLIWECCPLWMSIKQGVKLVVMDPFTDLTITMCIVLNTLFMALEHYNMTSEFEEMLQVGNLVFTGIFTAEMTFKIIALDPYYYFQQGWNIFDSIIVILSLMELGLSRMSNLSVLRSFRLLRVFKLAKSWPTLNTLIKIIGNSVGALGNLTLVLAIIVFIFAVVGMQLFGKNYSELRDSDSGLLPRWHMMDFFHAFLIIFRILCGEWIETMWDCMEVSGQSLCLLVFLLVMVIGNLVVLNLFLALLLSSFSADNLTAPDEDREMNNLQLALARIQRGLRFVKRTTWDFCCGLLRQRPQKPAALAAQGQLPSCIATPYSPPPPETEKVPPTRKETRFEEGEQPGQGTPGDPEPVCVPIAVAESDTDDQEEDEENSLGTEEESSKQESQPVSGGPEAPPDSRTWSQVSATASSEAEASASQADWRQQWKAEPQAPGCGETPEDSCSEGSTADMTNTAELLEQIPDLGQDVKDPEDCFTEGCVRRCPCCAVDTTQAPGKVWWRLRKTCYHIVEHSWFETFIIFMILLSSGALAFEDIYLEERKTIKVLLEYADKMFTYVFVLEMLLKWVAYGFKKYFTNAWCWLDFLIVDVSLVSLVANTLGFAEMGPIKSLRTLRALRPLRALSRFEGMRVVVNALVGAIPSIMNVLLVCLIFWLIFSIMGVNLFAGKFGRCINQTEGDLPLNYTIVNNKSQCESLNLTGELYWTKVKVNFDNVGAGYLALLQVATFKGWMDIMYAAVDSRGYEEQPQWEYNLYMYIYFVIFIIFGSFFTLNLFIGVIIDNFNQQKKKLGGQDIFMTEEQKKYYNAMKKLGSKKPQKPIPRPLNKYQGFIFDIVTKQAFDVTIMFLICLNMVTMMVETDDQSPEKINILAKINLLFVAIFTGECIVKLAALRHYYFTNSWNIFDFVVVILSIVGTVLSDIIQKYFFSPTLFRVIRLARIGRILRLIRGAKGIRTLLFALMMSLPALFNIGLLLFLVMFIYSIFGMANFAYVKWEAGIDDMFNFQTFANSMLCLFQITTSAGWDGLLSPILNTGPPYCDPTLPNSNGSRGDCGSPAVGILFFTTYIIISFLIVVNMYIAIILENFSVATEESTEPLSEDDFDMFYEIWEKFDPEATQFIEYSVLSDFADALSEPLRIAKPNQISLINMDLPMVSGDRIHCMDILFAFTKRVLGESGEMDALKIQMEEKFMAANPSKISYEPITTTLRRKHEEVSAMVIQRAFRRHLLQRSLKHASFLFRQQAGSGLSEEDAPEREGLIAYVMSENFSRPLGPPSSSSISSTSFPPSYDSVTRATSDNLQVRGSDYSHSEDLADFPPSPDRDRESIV
Experimental: as §1

hNaV1.1 [4] = molecular target: T2, hNaV1.1; assay: Peak INa tonic block, patch clamp; type: cell-based
Experimental: (§2) Tonic Block (TB): Tonic Block (TB) protocols used low stimulation rates (about 0.1 Hz) and negative potentials (−120 mV) to keep channels in closed (resting) states. Pharmacology was measured during peak INa in response to step to 0 mV. No leak subtraction was used.

hNaV1.2 [5] = molecular target: T3, hNaV1.2; assay: Peak INa tonic block, patch clamp; type: cell-based
Experimental: as §2

hNaV1.5 [6] = molecular target: T4, hNaV1.5; assay: Peak INa tonic block, patch clamp; type: cell-based
Experimental: as §2

hNaV1.6 = molecular target: T5, hNaV1.6 (Homo sapiens, UniProt Q9UQD0); assay: Steady-state inactivation and activation curves (V1/2 shift); type: cell-based; settings: for shift in V1/2 of activation curve: DMSO control −1.3 mV
T5 construct: stably expressing either human NaV1.6 (NP_055006); expressed in transfected cells
T5 sequence (Q9UQD0 whole entry): as the sequence (Q9UQD0 whole entry) above

[7] = test system: heterozygous Kcnq2 K556E mice; assay: Pentylenetetrazole (PTZ) induced seizure, Kcnq2 model; type: in vivo, mouse
Experimental: (§3) Pentylenetetrazole (PTZ), a GABA receptor antagonist, can be used to create a common, chemically-induced seizure model, a model of generalized seizure.
(§4) Mice were acclimated to experimental area for minimum 30 minutes before experimentation. All experiments were performed between 10:00 am and 12:30 pm. The treatment compounds and PTZ were always prepared fresh.
(§5) Mice were randomly assigned either to different doses of Compound 1 (10 mg/kg, 1 mg/kg, or 0.1 mg/kg) or a vehicle control containing 0.5% methylcellulose and 0.2% tween 80, and dosed via oral gavage (p.o). Compound 1 and the vehicle control were administered 60 minutes before the injection of PTZ.
(§6) PTZ (100 mg/kg) was dissolved in saline and administered subcutaneously (s.c) to the experimental mice. The latency to full tonic-clonic seizure with hind limb extension was measured. The animals were sacrificed either at the time of hind limb extension or 40 minutes after PTZ administration if no hind limb extension was recorded.
(§7) Data were analyzed using a Mantel-Cox log-rank test. Brain tissue and plasma were collected from some mice for each dose of Compound 1 at the PTZ endpoint for PK analysis.

[8] = test system: heterozygous Kcnc1 R320H mice; assay: Pentylenetetrazole (PTZ) induced seizure, Kcnc1 model; type: in vivo, mouse
Experimental: as §3, §4, §5, §6, §7

Hcn1 DEE mouse model = assay: Pentylenetetrazole (PTZ) induced seizure, Hcn1 model; type: in vivo
Experimental: as §3, §4, §5, §6, §7

[9] = Phase 1 SAD/MAD/food effect trial: pharmacokinetics; type: in vivo, human
Experimental: (§8) This was a 3-part Phase 1 clinical trial in healthy participants aged 18-55 years. Parts A and B were randomized, placebo-controlled and evaluated the effects of single (2.5-150 mg) and multiple (30-120 mg, 14 days QD (every day)) ascending oral doses of Compound 1, respectively. Part C was an open-label, randomized, crossover design evaluating the PK of a single oral dose (90 mg) in fasted and fed states. In Parts A (n=64) and B (n=32), participants were randomized 3:1 to Compound 1 or placebo (n=8/cohort). In Part C (n=16), participants were randomized 1:1 to one of two treatment sequences receiving a single dose of 90 mg Compound 1 in the fed (following a high-fat/high calorie meal) or fasted (≥10 hours after the last, and 4 hours before the next, meal) state.

healthy participants [10] = assay: Phase 1 SAD/MAD trial: EEG pharmacodynamics (ASSR, qEEG); type: in vivo, human; settings: for reduction from baseline in ASSR phase-locking factor (PLF): Day 14, 2 hours 35 minutes postdose
Experimental: as §8
In this clinical trial, the PD activity of Compound 1 was evaluated in healthy participants using electroencephalogram (EEG)-based auditory steady-state response (ASSR) measures and resting state EEG (qEEG)-based spectral power measures under eyes-open and eyes-closed conditions.

healthy participants [11] = assay: Phase 1 SAD/MAD/food effect trial: safety and tolerability; type: in vivo, human
Experimental: as §8

healthy participants [12] = assay: 2-part Phase 1 trial (28 days; OXC combination): qEEG and ASSR pharmacodynamics; type: in vivo, human; settings: Part A, 90 mg QD 28 days
Excerpt: This was a 2-part randomized, placebo-controlled Phase 1 trial in healthy participants aged 18-55 years. […] PD effects were examined on quantitative EEG (qEEG; resting and vigilant conditions) and stimulated EEG using auditory steady state response (ASSR). A total of 48 participants were enrolled; Part A, n=30; Part B, n=18.

[13] = Preliminary exposure data from first 12 participants (Example 9 study); type: in vivo, human
[14] = Compound 1 human pharmacokinetics as stated in trial rationale; type: in vivo; settings: predicted from current knowledge of pharmacokinetics
[15] = test system: hNaV1.1, hNaV1.2, hNaV1.5, rNaV1.2, dNaV1.2, mNaV1.6, rNaV1.6; assay: Persistent INa of other NaV isoforms and orthologs, patch clamp; settings: read-out: persistent INa IC50 values across isoforms and orthologs
Excerpt: Persistent INa was activated from resting/closed channel conformations by maintaining a hyperpolarized holding potential (−120 mV).

[16] = 10 mg/kg p.o., 60 min before PTZ 100 mg/kg s.c.

CCOC(F)(F)c1nnc2cnc(-c3cnc(OCC(F)(F)F)c(F)c3)cn12 [Compound 1, 3-(ethoxydifluoromethyl)-6-(5-fluoro-6-(2,2,2-trifluoroethoxy)pyridin-3-yl)-[1,2,4]triazolo[4,3-a]pyrazine]
Ratio to Peak INa (TB) (UDB-10 Hz) (human NaV1.6; hNaV1.6): 31 | Ratio to Pers. INa (Peak INa UDB-10 Hz / persistent INa) (human NaV1.6; hNaV1.6): 2 | IC50 (human NaV1.6; hNaV1.6, 10 Hz): 271 nM | Peak INa UDB-10 Hz maximum inhibition (human NaV1.6; hNaV1.6, 10 Hz): 75% | use-dependent block at stimulation frequency of 10 Hz (human NaV1.6; hNaV1.6, 10 Hz): concentration dependent inhibition | use-dependent block at increased frequencies (human NaV1.6; hNaV1.6, 10 Hz, 30 Hz or 50 Hz): significantly greater compared with CBZ | preference for persistent INa over peak INa voltage-dependent block (hNaV1.1 [1]): 6.3 fold | preference for persistent INa over peak INa voltage-dependent block (hNaV1.2 [2]): 8.2 fold | preference for persistent INa over peak INa voltage-dependent block (hNaV1.5 [3]): 5.8 fold | IC50 (hNaV1.1 [4]): 18.9 µM | preference for persistent INa over peak INa tonic block (hNaV1.1 [4]): 173 fold | IC50 (hNaV1.2 [5]): 13.7 µM | preference for persistent INa over peak INa tonic block (hNaV1.2 [5]): 80 fold | preference for persistent INa over peak INa tonic block (hNaV1.5 [6]): > 174 fold | peak INa tonic block inhibition (hNaV1.5 [6]; at 30 000 nmol/L): 12% | shift in V1/2 of activation curve (hNaV1.6; 0.3 μmol/L): −2.3 mV | shift in V1/2 of activation curve (hNaV1.6; 1 μmol/L): −2.7 mV | shift in V1/2 of steady-state inactivation curve (hNaV1.6; 1 μmol/L, DMSO control −2.6 mV): −11.7 mV | efficacy in KCNQ2 K556E PTZ seizure model [7, 16]: highly efficacious | protection from hindlimb extension (FIG. 14C) ([7]; Kcnq2 DEE mouse model, PTZ): robust anticonvulsant activity | efficacy in KCNC1 R320H PTZ seizure model [8, 16]: highly efficacious | protection from hindlimb extension (FIG. 14D) ([8]; Kcnc1 DEE mouse model, PTZ): robust anticonvulsant activity | protection from hindlimb extension (FIG. 14E) (Hcn1 DEE mouse model): robust anticonvulsant activity | exposure over the evaluated dose range ([9]; healthy adults, oral, single 2.5-150 mg, multiple 30-120 mg QD): increased dose proportionally | increase in AUC, fed vs fasted state ([9]; single 90-mg dose): 14% | increase in Cmax, fed vs fasted state ([9]; single 90-mg dose): 9% | reduction from baseline in ASSR phase-locking factor (PLF) (healthy participants [10]; 90 mg QD): approximately 30% | reduction from baseline in ASSR phase-locking factor (PLF) (healthy participants [10]; 120 mg QD): ~60% | qEEG Delta (1.5-6 Hz) and Theta (6-8.5 Hz) band spectral power (healthy participants [10]; 120 mg single dose and 120 mg QD): Increases from baseline | ASSR-based absolute evoked gamma power vs placebo (healthy participants [10]; any Compound 1 dose level): No statistically significant differences | TEAEs that were mild (healthy participants [11]; healthy participants): > 92% | safety findings in vital signs, clinical laboratory results, physical exams, ECGs, C-SSRS (healthy participants [11]; healthy participants): no clinically significant safety findings | participants experiencing typical NaV blocker events (healthy participants [11]; more frequent at 120 mg and 150 mg): 34% | tolerability in healthy participants (healthy participants [11]; single doses up to 150 mg, up to 120 mg QD 14 days, 90 mg fed and fasted): well-tolerated; also recorded: well tolerated | qEEG (Delta and Theta power) and ASSR (PLF and Evoked Power) vs placebo (healthy participants [12]): Statistically significant differences | Compound 1 exposures on Day 1 (after single dose) [13]: above therapeutic range; also recorded: above predicted therapeutic levels | exposure after 28 days of once daily dosing and auto-titration [13]: approaching steady-state; also recorded: approaches steady state | time predicted to achieve 90% steady state [14]: about 6 weeks | IC50 [15]: 109 to 180 nM
